This note sets out measurements from patent publication US7786310B2, “Small molecule transcriptional activation domains” (The Regents of the University of Michigan, priority 2004, dated 2010).

For assay [1], the system named is transcription mediated by 4. In words: competition/squelching experiment: free activation domain added to in vitro transcription reactions containing the DNA-bound activator. Format: biochemical, human. As to conditions: 1-10 μM concentration of free activation domain; FIG. 7. The protocol: In this experiment, micromolar concentrations of free activation domain are added to transcription reactions containing the DNA-bound activator and the corresponding affect on transcription levels is measured. Results with one of the activation domains (4) is shown (See, e.g., FIGS. 7-8).

The test system of assay [2] is HeLa nuclear extracts. As to conditions: for ability to up-regulate transcription (activity in words, compared with AD 1): Example 9 numbering (FIG. 13/14A), ATF14 as positive control, FIG. 15.

Consider `COC(OC)C1CC(CCO)(CC(C)C)N(Cc2ccccc2)O1` (centres unmarked) [S8, 2-(2-Benzyl-5-dimethoxymethyl-3-isobutyl-isoxazolidin-3-yl)-ethanol], for which the “suppression of transcription mediated by 4” value in assay [1] is given as around 50%. The “transcriptional activation when the activation domain is not covalently linked to methotrexate (not localized to DNA)” value in assay [2] (isoxazolidine and methotrexate hydrazide 1 added separately in the same reaction, FIG. 6) is listed as “Little activation”.
For “2-(4({(6-(Amino-methylcarbaminidoylimino-methyl)-pyrazin-2-ylmethyl)-methylamino}-methyl)-benzoylamino)-4-(2-(2-benzyl-(5RS)-hydroxymethyl-(3RS)-isobutylisoxazolidin-3-yl)-ethylidene-hydrazinocarbonyl)-(S)-butyric acid [isoxazolidine 6]”, in assay [2], the “ability to up-regulate transcription (activity in words, compared with AD 1)” value is on record as “function well as transcriptional ADs”.
Take `CC(C)C[C@]1(C/C=N/NC(=O)CC[C@H](NC(=O)c2ccc(N(C)Cc3cnc4nc(N)nc(N)c4n3)cc2)C(=O)O)C[C@](C)(CO)ON1CC(=O)O` (racemic) [isoxazolidine 3, 2-(4({(6-(Amino-methylcarbaminidoylimino-methyl)-pyrazin-2-ylmethyl)-methylamino}-methyl)-benzoylamino)-4-{2-((5RS)-hydroxymethyl-2-(hydroxy-2-oxopropyl)-(3RS)-isobutyl-isoxazolidin-3-yl)-ethylidene-hydrazinocarbonyl}-(S)-butyric acid]: the “ability to up-regulate transcription (activity in words, compared with AD 1)” value in assay [2] was “indistinguishable from that of AD 1”.
As for “2-(4({(6-(Amino-methylcarbaminidoylimino-methyl)-pyrazin-2-ylmethyl)-methylamino}-methyl)-benzoylamino)-4-(2-benzyl-(3RS)-(2-hydroxy-ethyl)-3-isobutylisoxazolidin-(5RS)-ylmethylene-hydrazinocarbonyl)-(S)-butyric acid [isoxazolidine 4]”, the “ability to up-regulate transcription (activity in words, compared with AD 1)” value in assay [2] was “indistinguishable from that of AD 1”.
